Test results reported in publication PMC6222871, “Suppression of Hepatitis C Virus Genome Replication and Particle Production by a Novel Diacylglycerol Acyltransferases Inhibitor” (Molecules : A Journal of Synthetic Chemistry and Natural …, 2018).

Legend:
Huh7.5-J6/JFH1 cells [1] = assay: FACS analysis of LD-positive (BODIPY) J6/JFH1 cells; assay type: cell-based; details: 8 μM, 72 h, with BODIPY; DMSO 78.2%
Procedure: Huh7.5-J6/JFH1 cells were plated onto a 10 cc plate (Corning) and supplemented with either DMSO or 8 μM of 10j for 72 h. Then, Huh7.5-J6/JFH1 cells were fixed by using 4% paraformaldehyde for 10 min and permeabilized using 0.1% saponin in PBS for 20 min. Huh7.5-J6/JFH1 cells were stained with 0.001% BODIPY 493/503 D3922 (Invitrogen) in saponin for 1 h at 4 °C. The FACSAriaIII (BD Biosciences, Franklin Lakes, NJ, USA) was used for the flow cytometric analysis as previously described.

Huh7.5-J6/JFH1 cells [2] = assay: immunofluorescence of dsRNA (J2 antibody) and LD (Oil-Red-O) in Huh7.5-J6/JFH1 cells; assay type: cell-based, hepatitis C virus; details: increasing concentrations, 72 h
Procedure: They were treated with a series of increasing concentrations of 10j for 72 h. […] Since double-stranded (ds) RNAs were regarded as a genuine marker for endogenous viral RNA synthesis due to their roles as intermediates during viral RNA replication, we wished to test effect of 10j on expression and localization of the viral dsRNAs. For this purpose, Huh7.5-J6/JFH1 cells were treated with a series of increasing concentrations of 10j for 72 h. Then, dsRNAs were visualized by using a dsRNA-specific J2 antibody. […] To study effects of 10j on localization of LDs in parallel, LDs were also co-stained in an Oil-Red-O (ORO) dye.
Immunofluorescence analysis of Huh7.5-J6/JFH1 or Huh7.5-JFH1-5A-GFP cells in the presence of 10j was conducted as previously described [35]. Fluorescence were examined and captured by Nikon confocal laser scanning microscopic system. LD content was quantified using the ImageJ program.

[3] = system: HCV NS3 (Huh7.5-J6/JFH1, genotype 2a); assay: western blot of HCV NS3 protein in Huh7.5-J6/JFH1 cells
Procedure: Due to the tight coupling of viral genome replication to its protein expression, inhibition of viral RNA genome replication leads to a subsequent reduction of viral protein expression.
(A) Dose-dependent western blot analysis of Huh7.5-J6/JFH1 cells treated with increasing concentrations of 10j for 72 h by measuring protein expression levels of HCV NS3 relative to the β-actin. Daclatasvir, an NS5A inhibitor was used as a positive control. (B) Time-dependent western blot analysis of J6/JFH1 RNA-transfected Huh7.5 cells treated with 8 μM of 10j for increasing periods of time analyzed by measuring protein expression levels of HCV NS3 relative to the β-actin. (C,D) Same experiments were performed as in (A,B) to study effects of 10j on the expression levels of the NS5A protein of Huh7.5-Bart79I cells in a dose- as well as time-dependent manners.
Western blot analysis of Huh7.5-J6/JFH1 or Bart79I cells treated with 10j was conducted as previously described. Relative amounts of HNF4α proteins were quantified by using an HNF4α mouse monoclonal antibody (M04), clone 4E2 (Abnova) with the dilution of 1:1000.

[4] = MTT-based cell viability assay (EZ-CYTOX); details: human
Procedure: To order to study impacts of DGAT inhibitors on HCV genome replication independently of the particle production, we decided to examine effects of these twelve DGAT inhibitors on the levels of viral RNA genome and cell viability in parallel. […] Then, we treated them with an increasing concentration of each DGAT inhibitor. Then, luciferase and MTT-based cell viability assays were performed to determine EC50 and CC50 (cytotoxic concentration required to kill 50% of treated cells) values, respectively.
Cell viability was measured with EZ-CYTOX (10% tetrazolium salt; Dogen, Gyeonggi-do, Korea) as described previously. Anti-HCV replication analysis using a luciferase assay was conducted as previously described.

[5] = system: HCV genotype 1b (Huh7.5-Bart79I); assay: HCV genome replication in sub-genomic replicon Huh7.5-Bart79I cells by real-time RT-PCR
Procedure: Quantitative real-time RT-PCR analysis to measure levels of HCV RNA and GAPDH was conducted as previously described. The cDNA synthesis and reverse transcription of miR-122 were performed by using Taqman quantitative RT-PCR (qRT-PCR) analysis. Taqmanq RT-PCR components including TaqMan miR122 probe, endogenous control U6 probe, TaqMan® MicroRNA reverse transcription Kit and TaqMan® universal master mix II were purchased from Thermo Fisher Scientific (Waltham, MA, USA)

Huh7.5 cells = assay: visualization of intracellular LD by BODIPY in Huh7.5 cells; assay type: cell-based; details: 8 μM, 72 h
Procedure: Huh7.5 cells were incubated in a 24-well plate on top of coverslip in the presence of either DMSO, 8 μM of 10j, or 20 μM of A922500 for 72 h. Then, Huh7.5 cells were fixed by using 4% paraformaldehyde for 15 min and stained with 0.001% BODIPY 493/503 D3922 (Invitrogen, Carlsbad, CA, USA) for 10 min. The coverslips were mounted onto slides using Prolong Gold anti-fade reagent with DAPI (Invitrogen, Carlsbad, CA, USA) Fluorescence were examined and captured by Nikon confocal laser scanning microscopic system. LD content was quantified using the ImageJ program.

[6] = system: HCVcc particles (JFH1-NS5A-GFP); assay: HCVcc infectivity and time-of-addition assay; assay type: cell-based, hepatitis C virus; details: pre-treatment (−2 h), co-treatment (0 h), post-treatment (+2 h); dose-dependent
Procedure: In order to test the effects of 10j on the early viral functions, such as the viral entry and uncoating of the viral genome, we performed the “time of addition” experiment by using the cell culture-derived infectious HCVcc particles (JFH1-NS5A-GFP) (Figure 4A).
The time-of-addition assay was conducted as previously reported [38]. Briefly, naïve Huh-7.5 cells were plated in 384-well plates and incubated with serially diluted 10j at specific time points during virus infection: pre-infection treatment; co-infection treatment; post-infection treatment. Afterwards, infected cells were incubated at 37 °C for 3 days in the presence of inhibitors. At 72 h post-infection, HCV infection rates and cytotoxicity were determined by the number of GFP positive cells and Hoechst 33,342 positive cell nuclei, a marker for cell viability, respectively, using fully automated confocal microscopy (Opera, PerkinElmer, Hamburg, Germany). The acquired images were analyzed by in-house developed software. Percentages of HCV inhibition were calculated using 1% DMSO-treated cells and 10 μM of sofosbuvir treated cells and were set to 0% and 100% inhibition, respectively. Experiments were conducted at least two-times independently and in triplicates.

[7] = system: DGATs (rat liver microsome); design: method as in PMID 23141914, PMID 23242135; details: cited from earlier work
JFH1-NS5A-GFP cells = assay: NS5A-GFP and Oil Red O imaging in JFH1-NS5A-GFP cells; assay type: cell-based, hepatitis C virus; details: 72 h, dose-dependent
Procedure: Based on previous results, we noticed that EC50 values required for inhibition of the HCV genome replication by 10j were around 1–2 μM ranges (Figure 2 and Table 3). However, IC50 value required for inhibition of the enzymatic DGAT activities in vitro by 10j was reported to be higher than 5 μM (Table 2 and Figure 6E). Based on these observations, we hypothesized that inhibition of DGATs by 10j may not play a direct role in suppression of the viral genome replication. To test this hypothesis, we decided to study effects of 10j on DGAT and the viral genome replication in a simultaneous manner. […] Then, the viral NS3 protein and LDs were visualized by using an anti-NS3 antibody and BODIPY, respectively. […] Significant reduction of LD was only seen after treatment of 10j higher than 5 μM. In order to confirm this observation, we decided to utilize another HCV-positive cell—JFH1-NS5A-GFP cells—which were infected with infectious HCV genotype 2a particles with a visually tractable NS5A due to the presence of in-frame-fused GFP protein with NS5A. TGs of these cells were stained with ORO for visualization in parallel. […]
Immunofluorescence analysis of Huh7.5-J6/JFH1 or Huh7.5-JFH1-5A-GFP cells in the presence of 10j was conducted as previously described. Fluorescence were examined and captured by Nikon confocal laser scanning microscopic system. LD content was quantified using the ImageJ program.

SMILES: O=C(NCc1ccco1)c1ccc2[nH]c(COc3ccc(C45CC6CC(CC(C6)C4)C5)cc3)nc2c1 [10j, 2-{[4-(adamant-1yl)phenoxy]methyl)-N-(furan-2-ylmethyl)-1H-benzo[d]imidazole-5-carboxamide]
- relative number of LD-positive J6/JFH1 cells (Huh7.5-J6/JFH1 cells [1]): 38.6%
- amount of dsRNAs (Huh7.5-J6/JFH1 cells [2]): significantly reduced
- expression level of total LDs (Oil-Red-O) (Huh7.5-J6/JFH1 cells [2]): dose-dependent reduction
- EC50 ([3]; Hepatitis C virus, GETYPE2A, 72 h, read-out: concentration required for reducing 50% of HCV protein expression (EC50)): 3.6 µM
- time required for reducing 50% of HCV protein expression (T1/2) ([3]; genotype 2a, 10 μM of 10j, 8 μM (figure legend)): 37.8 h
- CC50 [4]: 38.9 µM
- T1/2, time required for reducing the viral RNAs by half ([5]; 8 μM, genotype 1b): 19.2 h
- EC50 ([5]; Hepatitis C virus, 72 h, read-out: EC50 HCV RNA, subgenomic replicon): 3.3 µM
- reduction in the level of LDs (BODIPY) (Huh7.5 cells): 49%
- infection of Huh7.5 cells with HCVcc particles [6]: all abrogated
- IC50 [7]: 4.4 µM
- concentration at which reduction of NS5A-GFP expression starts (JFH1-NS5A-GFP cells): 5 µM
